From ChEMBL document CHEMBL1649285, “In vivo efficacy of 1- and 2-gram human simulated prolonged infusions of doripenem against Pseudomonas aeruginosa” (Antimicrob Agents Chemother, 2009)
Values after ≈ are worked out from the molar mass of the structure shown.

Experiments:
Assay type in all cases: functional
Pseudomonas aeruginosa [1] = experiment: Antimicrobial activity against Pseudomonas aeruginosa isolate 1036 by broth microdilution method
Pseudomonas aeruginosa [2] = experiment: Antimicrobial activity against Pseudomonas aeruginosa isolate 944 by broth microdilution method
Pseudomonas aeruginosa [3] = experiment: Antimicrobial activity against Pseudomonas aeruginosa isolate 1050 by broth microdilution method
Pseudomonas aeruginosa [4] = experiment: Antimicrobial activity against Pseudomonas aeruginosa isolate 1060 by broth microdilution method
Pseudomonas aeruginosa [5] = experiment: Antimicrobial activity against Pseudomonas aeruginosa isolate 1095 by broth microdilution method
Pseudomonas aeruginosa [6] = experiment: Antimicrobial activity against Pseudomonas aeruginosa isolate 22 by broth microdilution method
Pseudomonas aeruginosa [7] = experiment: Antimicrobial activity against Pseudomonas aeruginosa isolate 878 by broth microdilution method
Pseudomonas aeruginosa [8] = experiment: Antimicrobial activity against Pseudomonas aeruginosa isolate 896 by broth microdilution method
Pseudomonas aeruginosa [9] = experiment: Antimicrobial activity against Pseudomonas aeruginosa isolate 988 by broth microdilution method
Pseudomonas aeruginosa [10] = experiment: Antimicrobial activity against Pseudomonas aeruginosa isolate 1006 by broth microdilution method
Pseudomonas aeruginosa [11] = experiment: Antimicrobial activity against Pseudomonas aeruginosa isolate 856 by broth microdilution method
Pseudomonas aeruginosa [12] = experiment: Antimicrobial activity against Pseudomonas aeruginosa isolate 913 by broth microdilution method
Pseudomonas aeruginosa [13] = experiment: Antimicrobial activity against Pseudomonas aeruginosa isolate 927 by broth microdilution method
Pseudomonas aeruginosa [14] = experiment: Antimicrobial activity against Pseudomonas aeruginosa isolate 968 by broth microdilution method
Pseudomonas aeruginosa [15] = experiment: Antimicrobial activity against Pseudomonas aeruginosa isolate 971 by broth microdilution method
Pseudomonas aeruginosa [16] = experiment: Antimicrobial activity against Pseudomonas aeruginosa isolate 821 by broth microdilution method
Pseudomonas aeruginosa [17] = experiment: Antimicrobial activity against Pseudomonas aeruginosa isolate 1080 by broth microdilution method
Pseudomonas aeruginosa [18] = experiment: Antimicrobial activity against Pseudomonas aeruginosa isolate 1093 by broth microdilution method
Pseudomonas aeruginosa [19] = experiment: Antimicrobial activity against Pseudomonas aeruginosa isolate 1036 by broth microdilution method in presence of beta-lactamase inhibitor Tazobactam
Pseudomonas aeruginosa [20] = experiment: Antimicrobial activity against Pseudomonas aeruginosa isolate 944 by broth microdilution method in presence of beta-lactamase inhibitor Tazobactam
Pseudomonas aeruginosa [21] = experiment: Antimicrobial activity against Pseudomonas aeruginosa isolate 1050 by broth microdilution method in presence of beta-lactamase inhibitor Tazobactam
Pseudomonas aeruginosa [22] = experiment: Antimicrobial activity against Pseudomonas aeruginosa isolate 1060 by broth microdilution method in presence of beta-lactamase inhibitor Tazobactam
Pseudomonas aeruginosa [23] = experiment: Antimicrobial activity against Pseudomonas aeruginosa isolate 1095 by broth microdilution method in presence of beta-lactamase inhibitor Tazobactam
Pseudomonas aeruginosa [24] = experiment: Antimicrobial activity against Pseudomonas aeruginosa isolate 22 by broth microdilution method in presence of beta-lactamase inhibitor Tazobactam
Pseudomonas aeruginosa [25] = experiment: Antimicrobial activity against Pseudomonas aeruginosa isolate 878 by broth microdilution method in presence of beta-lactamase inhibitor Tazobactam
Pseudomonas aeruginosa [26] = experiment: Antimicrobial activity against Pseudomonas aeruginosa isolate 896 by broth microdilution method in presence of beta-lactamase inhibitor Tazobactam
Pseudomonas aeruginosa [27] = experiment: Antimicrobial activity against Pseudomonas aeruginosa isolate 988 by broth microdilution method in presence of beta-lactamase inhibitor Tazobactam
Pseudomonas aeruginosa [28] = experiment: Antimicrobial activity against Pseudomonas aeruginosa isolate 1006 by broth microdilution method in presence of beta-lactamase inhibitor Tazobactam
Pseudomonas aeruginosa [29] = experiment: Antimicrobial activity against Pseudomonas aeruginosa isolate 856 by broth microdilution method in presence of beta-lactamase inhibitor Tazobactam
Pseudomonas aeruginosa [30] = experiment: Antimicrobial activity against Pseudomonas aeruginosa isolate 913 by broth microdilution method in presence of beta-lactamase inhibitor Tazobactam
Pseudomonas aeruginosa [31] = experiment: Antimicrobial activity against Pseudomonas aeruginosa isolate 927 by broth microdilution method in presence of beta-lactamase inhibitor Tazobactam
Pseudomonas aeruginosa [32] = experiment: Antimicrobial activity against Pseudomonas aeruginosa isolate 968 by broth microdilution method in presence of beta-lactamase inhibitor Tazobactam
Pseudomonas aeruginosa [33] = experiment: Antimicrobial activity against Pseudomonas aeruginosa isolate 971 by broth microdilution method in presence of beta-lactamase inhibitor Tazobactam
Pseudomonas aeruginosa [34] = experiment: Antimicrobial activity against Pseudomonas aeruginosa isolate 821 by broth microdilution method in presence of beta-lactamase inhibitor Tazobactam
Pseudomonas aeruginosa [35] = experiment: Antimicrobial activity against Pseudomonas aeruginosa isolate 1080 by broth microdilution method in presence of beta-lactamase inhibitor Tazobactam
Pseudomonas aeruginosa [36] = experiment: Antimicrobial activity against Pseudomonas aeruginosa isolate 1093 by broth microdilution method in presence of beta-lactamase inhibitor Tazobactam

Row | SMILES | MIC (Pseudomonas aeruginosa [1]) | MIC (Pseudomonas aeruginosa [2]) | MIC (Pseudomonas aeruginosa [3]) | MIC (Pseudomonas aeruginosa [4]) | MIC (Pseudomonas aeruginosa [6]) | MIC (Pseudomonas aeruginosa [7]) | MIC (Pseudomonas aeruginosa [8]) | MIC (Pseudomonas aeruginosa [9]) | MIC (Pseudomonas aeruginosa [10]) | MIC (Pseudomonas aeruginosa [11]) | MIC (Pseudomonas aeruginosa [12]) | MIC (Pseudomonas aeruginosa [13]) | MIC (Pseudomonas aeruginosa [14]) | MIC (Pseudomonas aeruginosa [15]) | MIC (Pseudomonas aeruginosa [16]) | MIC (Pseudomonas aeruginosa [17]) | MIC (Pseudomonas aeruginosa [18]) | other results
1 | NC[C@H]1O[C@H](O[C@H]2[C@H](O)[C@@H](O[C@H]3O[C@H](CO)[C@@H](O)[C@H](N)[C@H]3O)[C@H](N)C[C@@H]2N)[C@H](N)C[C@@H]1O [TOBRAMYCIN] | 0.125 µg/mL (≈ 0.267 µM) | 96 µg/mL (≈ 205 µM) | 16 µg/mL (≈ 34.2 µM) | 0.75 µg/mL (≈ 1.6 µM) | 0.5 µg/mL (≈ 1.07 µM) | 1.5 µg/mL (≈ 3.21 µM) | 24 µg/mL (≈ 51.3 µM) | 64 µg/mL (≈ 137 µM) | 3 µg/mL (≈ 6.42 µM) | 32 µg/mL (≈ 68.4 µM) | 96 µg/mL (≈ 205 µM) | 3 µg/mL (≈ 6.42 µM) | 96 µg/mL (≈ 205 µM) | 1.5 µg/mL (≈ 3.21 µM) | 3 µg/mL (≈ 6.42 µM) | 3 µg/mL (≈ 6.42 µM) | 2 µg/mL (≈ 4.28 µM) | MIC (Pseudomonas aeruginosa [5]): 2 µg/mL (≈ 4.28 µM)
2 | CO/N=C(\C(=O)N[C@@H]1C(=O)N2C(C(=O)[O-])=C(C[N+]3(C)CCCC3)CS[C@H]12)c1csc(N)n1 [CEFEPIME] | 12 µg/mL (≈ 25 µM) | 16 µg/mL (≈ 33.3 µM) | 4 µg/mL (≈ 8.32 µM) | 2 µg/mL (≈ 4.16 µM) | 16 µg/mL (≈ 33.3 µM) | 24 µg/mL (≈ 49.9 µM) | 12 µg/mL (≈ 25 µM) | 12 µg/mL (≈ 25 µM) | 4 µg/mL (≈ 8.32 µM) | > 256 µg/mL | 12 µg/mL (≈ 25 µM) | 24 µg/mL (≈ 49.9 µM) | 32 µg/mL (≈ 66.6 µM) | 32 µg/mL (≈ 66.6 µM) | > 256 µg/mL | 64 µg/mL (≈ 133 µM) | 64 µg/mL (≈ 133 µM) | 
3 | CCN1CCN(C(=O)N[C@@H](C(=O)N[C@@H]2C(=O)N3[C@@H]2SC(C)(C)[C@@H]3C(=O)O)c2ccccc2)C(=O)C1=O [PIPERACILLIN] |  |  |  |  |  |  |  |  |  |  |  |  |  |  |  |  |  | MIC (Pseudomonas aeruginosa [19]): 3 µg/mL; MIC (Pseudomonas aeruginosa [20]): 8 µg/mL; MIC (Pseudomonas aeruginosa [21]): 8 µg/mL; MIC (Pseudomonas aeruginosa [22]): 4 µg/mL; MIC (Pseudomonas aeruginosa [23]): 12 µg/mL; MIC (Pseudomonas aeruginosa [24]): 32 µg/mL; MIC (Pseudomonas aeruginosa [25]): ≥ 256 µg/mL; MIC (Pseudomonas aeruginosa [26]): ≥ 256 µg/mL; MIC (Pseudomonas aeruginosa [27]): 64 µg/mL; MIC (Pseudomonas aeruginosa [28]): 16 µg/mL; MIC (Pseudomonas aeruginosa [29]): ≥ 256 µg/mL; MIC (Pseudomonas aeruginosa [30]): ≥ 256 µg/mL; MIC (Pseudomonas aeruginosa [31]): 32 µg/mL; MIC (Pseudomonas aeruginosa [32]): 16 µg/mL; MIC (Pseudomonas aeruginosa [33]): ≥ 256 µg/mL; MIC (Pseudomonas aeruginosa [34]): 64 µg/mL; MIC (Pseudomonas aeruginosa [35]): 16 µg/mL; MIC (Pseudomonas aeruginosa [36]): 6 µg/mL
